Reference: patent US6426355B1, “Heterocyclic carboxamide-containing thiourea inhibitors of herpes viruses containing phenylenediamine group” (American Home Products, priority 1998, dated 2002)
In brackets after ≈: the same amount, converted by molar mass.

Tests used:
VZV strain Ellen = assay: VZV Antiviral (ELISA) assay; type: cell-based; conditions: VZV strain Ellen in HFF cells; for % inhibition 10 ug/ml VZV: at 10 ug/ml
How it was run: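 Low-MOI (<0.1) Ellen infection of HFF overnight; cell mix plated 3.5×10^4/well with compound, DMEM + 2% FBS, 3 d, 37° C, 5% CO2. Fix, anti-gpII mAb ELISA, MUG substrate, fluorescence. IC50 vs compound-free signal.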

HSV-1 = assay: HSV Antiviral (ELISA) assay; type: cell-based; conditions: HSV-1 in Vero cells
How it was run: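 Vero cells in DMEM/2% FBS pretreated with compound 30 min before HSV-1 infection (MOI 0.006), then ~24 h at 37 °C. Viral gD detected by ELISA with β-galactosidase secondary and 4-methylumbelliferyl-galactoside (ex 365/em 450 nm); IC50 from fluorescence versus untreated infected cells.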

[1] = system: HCMV recombinant mutant virus (RV145); assay: HCMV microtiter plate assay (beta-glucuronidase reporter); type: cell-based, Human Cytomegalovirus; conditions: HCMV in human foreskin fibroblasts
How it was run: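 Human foreskin fibroblasts were infected with RV145 in the presence of inhibitor. β-glucuronidase under a viral promoter served as the replication marker. At 96 h post-infection, lysates in pH 7.0 phosphate with Triton X-100/sarkosyl were assayed colorimetrically or fluorometrically, and IC50 was estimated from varying inhibitor amounts.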

| SMILES | IC50 (ug/ml) VZV (VZV strain Ellen) | % inhibition 10 ug/ml VZV (VZV strain Ellen) | IC50 (ug/ml) HSV (HSV-1) | IC50 (ug/ml) HCMV [1] |
| --- | --- | --- | --- | --- |
| O=C(CN1CCCCC1)Nc1ccc(NC(=S)Nc2ccc(NC(=O)c3csnn3)cc2)cc1Cl [Example 391] | 6 µg/mL (≈ 11.3 µM) | 97% | 8 µg/mL (≈ 15.1 µM) | 0.019 µg/mL (≈ 0.0358 µM) |
| CN(C)CCSCC(=O)Nc1ccc(NC(=S)Nc2ccc(NC(=O)c3ccco3)cc2)cc1Cl [Example 396] | >10 µg/mL | 26% | >10 µg/mL | 0.7 µg/mL (≈ 1.32 µM) |
| CCOC(=O)Nc1ccc(NC(=S)Nc2ccc(NC(=O)c3ccco3)cc2)cc1Cl [Example 398] | >10 µg/mL | 5% | >10 µg/mL | 0.13 µg/mL (≈ 0.283 µM) |
| O=C(Nc1ccc(NC(=S)Nc2ccc(NC(=O)c3ccco3)cc2)cc1Cl)c1ccccc1 [Example 403] | >15 µg/mL | 108% | 6 µg/mL (≈ 12.2 µM) | 0.09 µg/mL (≈ 0.183 µM) |
| O=C(CN1CCSCC1)Nc1ccc(NC(=S)Nc2ccc(NC(=O)c3ccco3)cc2)cc1Cl [Example 406] | >10 µg/mL | 28% | >10 µg/mL | 0.12 µg/mL (≈ 0.226 µM) |
| CC(=O)Nc1ccc(NC(=S)Nc2ccc(NC(=O)c3ccco3)cc2)cc1Cl [Example 409] | >10 µg/mL | 5% | >10 µg/mL | 2 µg/mL (≈ 4.66 µM) |
| CCCN(CCC)CC(=O)Nc1ccc(NC(=S)Nc2ccc(NC(=O)c3ccco3)cc2)cc1Cl [Example 411] | 2 µg/mL (≈ 3.79 µM) | 99% | 8 µg/mL (≈ 15.1 µM) | 0.024 µg/mL (≈ 0.0454 µM) |
| CCN(CC)CC(=O)Nc1ccc(NC(=S)Nc2ccc(NC(=O)c3ccco3)cc2)cc1Cl [Example 413] | 5 µg/mL (≈ 10 µM) | 103% | 5 µg/mL (≈ 10 µM) | 0.081 µg/mL (≈ 0.162 µM) |
| O=C(CN1CCCC1)Nc1ccc(NC(=S)Nc2ccc(NC(=O)c3ccco3)cc2)cc1Cl [Example 416] | >15 µg/mL | 87% | >10 µg/mL | 0.25 µg/mL (≈ 0.502 µM) |
| Nc1ccc(NC(=S)Nc2ccc(NC(=O)c3ccco3)cc2)cc1Cl [Example 421] | >10 µg/mL | – | 8 µg/mL (≈ 20.7 µM) | 0.75 µg/mL (≈ 1.94 µM) |
| O=C(CN1CCCCCC1)Nc1ccc(NC(=S)Nc2ccc(NC(=O)c3ccco3)cc2)cc1Cl [Example 422] | >10 µg/mL | 69% | 5 µg/mL (≈ 9.5 µM) | 0.058 µg/mL (≈ 0.11 µM) |
| CC1CCCCN1CC(=O)Nc1ccc(NC(=S)Nc2ccc(NC(=O)c3ccco3)cc2)cc1Cl (centres unmarked) [Example 424] | 0.7 µg/mL (≈ 1.33 µM) | 103% | 3 µg/mL (≈ 5.7 µM) | 0.09 µg/mL (≈ 0.171 µM) |
| Nc1cccc(NC(=S)Nc2ccc(NC(=O)c3ccco3)cc2)c1 [Example 430] | >10 µg/mL | – | >10 µg/mL | 0.4 µg/mL (≈ 1.14 µM) |
| O=C(Nc1ccc(NC(=S)Nc2cccc(C(F)(F)F)c2)cc1)c1ccco1 [Example 431] | >10 µg/mL | – | >10 µg/mL | 0.06 µg/mL (≈ 0.148 µM) |
| Nc1cc(Cl)cc(NC(=S)Nc2ccc(NC(=O)c3ccco3)cc2)c1 [Example 435] | 0.9 µg/mL (≈ 2.33 µM) | 94% | 10 µg/mL (≈ 25.8 µM) | 0.08 µg/mL (≈ 0.207 µM) |
| Cc1cccc(NC(=S)Nc2ccc(NC(=O)c3ccco3)cc2)c1 [Example 436] | >10 µg/mL | – | 10 µg/mL (≈ 28.5 µM) | 0.15 µg/mL (≈ 0.427 µM) |
| O=C(Nc1ccc(NC(=S)Nc2ccc(NC(=O)c3ccccc3F)cc2)cc1Cl)OCCN1CCCCC1 [Example 438] | 1.5 µg/mL (≈ 2.63 µM) | 73% | 5 µg/mL (≈ 8.77 µM) | 3 µg/mL (≈ 5.26 µM) |
| O=C(Nc1ccc(NC(=S)Nc2ccc(NC(=O)c3ccco3)cc2)cc1Cl)OCCN1CCCCC1 [Example 439] | >10 µg/mL | 46% | 9 µg/mL (≈ 16.6 µM) | 0.5 µg/mL (≈ 0.922 µM) |
| Nc1ccc(Cl)cc1NC(=S)Nc1ccc(NC(=O)c2ccco2)cc1 [Example 440] | 9 µg/mL (≈ 23.3 µM) | – | 1 µg/mL (≈ 2.58 µM) | 0.3 µg/mL (≈ 0.775 µM) |
| N#Cc1cccc(NC(=S)Nc2ccc(NC(=O)c3ccco3)cc2)c1 [Example 441] | >10 µg/mL | – | >10 µg/mL | 0.17 µg/mL (≈ 0.469 µM) |
